Assay results reported in patent US20090142323A1, “METHODS FOR TREATING A DISORDER BY REGULATING GPRC6A” (priority 2007, published 2009).

Tests used:
[1] = tested on: bone marrow stromal cells (BMSC); experiment: phospho-ERK in bone marrow stromal cells from wild-type and GPRC6A-/- mice; type: cell-based, mouse
Method: The femurs and tibias from 8-week-old wild-type and GPRC6A^−/− mice were dissected, the ends of the bones were cut, and marrow was flushed out with 2 mL of ice-cold a-MEM containing 10% FBS using a needle and syringe. A suspension of bone marrow cells was obtained by repeated aspiration of the cell preparation through a 22-gauge needle, and nucleated cells were counted with a hemocytometer. Cells were seeded into 6-well plates at a density of 3×10^7 cells/mL and cultured for three days in a-MEM supplemented with 10% FBS, 100 kU/L of sodium penicillin G and 100 mg/L of streptomycin sulfate in a humidified incubator with 5% CO2 and 95% air at a temperature of 37° C. On day 3, all nonadherent cells were then removed with the first medium change and then the adherent cells (representing bone marrow-derived mesenchymal stem cells, BMSCs) were grown for additional periods of up 3 days in the same medium. After overnight quiescence, the cells were stimulated for 5 minutes by testosterone and p-estradiol at the concentrations as indicated.

HEK-293 cells = experiment: phospho-ERK in non-transfected HEK-293 control cells; type: cell-based, human; settings: control HEK293, no GPRC6A
Method: (§1) Equal amounts of lysates were subjected to 10% SDS-PAGE, and phospho-ERK1/2 levels were determined by immunoblotting using antiphospho-ERK1/2 mitogen-activated protein kinase antibody (Cell Signaling Technology). […] An anti-peptide antibody was raised in a rabbit against a peptide ([…] (SEQ ID NO: 27)) corresponding to a sequence in the extracellular domain of mouse GPRC6A (in exon 1 of mouse GPRC6A gene) produced by Abgent (San Diego, Calif.). For phospho-ERK, the phospho-ERK1/2 levels were determined by immunoblotting using anti-phospho-ERK1/2 mitogen-activated protein kinase antibody (Cell Signaling Technology). Urinary β2-microglobulin was detected by rabbit polyclonal anti-β2-microglobulin antibody (Abcam Inc.). For aromatase expression analysis, the rabbit polyclonal anti-aromatase antibody (Abcam Inc.) and goat anti-rabbit IgG HRP secondary antibody (Santa Cruz Biotechnology Inc.) were used. Mouse anti-Actin antibody (Santa Cruz Biotechnology Inc.) was used for control protein loading.

GPRC6A [2] = biological target: T1, GPRC6A (Mus musculus, UniProt Q8K4Z6); experiment: phospho-ERK activation in HEK-293 cells transfected with GPRC6A (immunoblot); type: cell-based; design: expressed in transfected cells; host or cells: HEK-293
T1 sequence (Q8K4Z6 21-928): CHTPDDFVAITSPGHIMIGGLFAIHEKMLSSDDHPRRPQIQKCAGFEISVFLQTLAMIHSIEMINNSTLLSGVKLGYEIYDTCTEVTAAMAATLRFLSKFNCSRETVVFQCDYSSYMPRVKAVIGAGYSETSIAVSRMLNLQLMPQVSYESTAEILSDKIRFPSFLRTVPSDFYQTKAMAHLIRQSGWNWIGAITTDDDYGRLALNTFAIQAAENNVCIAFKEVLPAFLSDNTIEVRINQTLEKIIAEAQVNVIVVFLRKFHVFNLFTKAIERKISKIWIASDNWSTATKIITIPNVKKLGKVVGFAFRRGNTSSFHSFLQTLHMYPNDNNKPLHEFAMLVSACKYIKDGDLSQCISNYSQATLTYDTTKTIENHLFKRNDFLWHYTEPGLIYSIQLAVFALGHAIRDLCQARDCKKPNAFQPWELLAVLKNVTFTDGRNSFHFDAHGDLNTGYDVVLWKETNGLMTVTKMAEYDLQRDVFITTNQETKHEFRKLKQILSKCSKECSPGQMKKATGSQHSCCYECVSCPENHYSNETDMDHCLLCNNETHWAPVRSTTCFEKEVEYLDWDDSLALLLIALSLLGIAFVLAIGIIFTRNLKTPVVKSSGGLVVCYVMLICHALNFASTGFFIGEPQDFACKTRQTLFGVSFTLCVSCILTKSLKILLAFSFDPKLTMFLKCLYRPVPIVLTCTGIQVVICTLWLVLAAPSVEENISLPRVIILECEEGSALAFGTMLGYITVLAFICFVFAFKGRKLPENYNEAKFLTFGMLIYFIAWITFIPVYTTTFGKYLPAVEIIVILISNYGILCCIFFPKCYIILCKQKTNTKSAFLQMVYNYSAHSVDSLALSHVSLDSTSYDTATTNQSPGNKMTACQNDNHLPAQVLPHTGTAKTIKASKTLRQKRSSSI
Method: as §1

GPRC6A [3] = biological target: T1, GPRC6A; experiment: [3H]testosterone binding to membrane fractions of HEK-293 cells; design: expressed in transfected cells
Method: Membranes from HEK and HEK stably transfected with GPRC6A were prepared and stored at −80° C. The membrane preparations were diluted to 0.15-0.5 mg protein/ml in binding buffer (in mM: 20 HEPES, 100 NaCl, 6 MgCl2, 1 EDTA, and 1 EGTA) immediately before all binding assays. Total binding saturation curves were generated by incubating 250 μl of membrane preparation and 250 μl of [^3H]Testoterone (Testosterone-[1,2,6,7-3H(N)]; 1 mCi; Sigma, Chemicals, St. Louis, Mo.), dissolved in binding buffer (in mM: 20 HEPES, 100 NaCl, 6 MgCl2, 1 EDTA, and 1 EGTA) for final reaction concentrations ranging from 0.3 to 25 nM, for 40 min. After the 40-min incubation, the binding reactions were terminated by rapidly filtering 400 μl of the reaction over a presoaked Whatman, glass-fiber filter (pore size, 1 μm) to separate bound steroid from free steroid. The filter was immediately washed twice with 12.5 ml of wash buffer (PBS) and placed in a scintillation vial. Radioactivity was counted in a liquid scintillation counter (Beckman Instruments, Fullerton, Calif.). All steps of the binding assays were conducted at 4° C.

[4] = HEK-293 cells transfected with GPRC6A

C[C@]12CC[C@H]3[C@@H](CCC4=CC(=O)CC[C@@]43C)[C@@H]1CC[C@@H]2O [testosterone]
stimulation of phospho-ERK in BMSC ([1]; BMSC from GPRC6A-/- mice, testosterone up to 80 nM): only minimal effects | stimulation of phospho-ERK in BMSC ([1]; BMSC from wild-type mice): substantial stimulation of ERK | phospho-ERK response (HEK-293 cells): did not responded | medium calcium concentration required for testosterone activation of GPRC6A (GPRC6A [2]): > 0.5 mM | activation of phospho-ERK in cytosol and nucleus (GPRC6A [2]; GPRC6A expressing HEK-293 cells): stimulated activation of phospho-ERK in both the cytosol and nucleus | GPRC6A-mediated activation of phospho-ERK (GPRC6A [2]; [4]): stimulated extracellular signal-regulated kinase phosphorylation (phospho-ERK) in a dose-dependent fashion | specific testosterone binding to plasma membranes (GPRC6A [3]; [4]): Significant amounts of specific testosterone binding | specific testosterone binding to plasma membranes (GPRC6A [3]; untransfected cells): negligible specific binding
